Measurements reported in PubChem BioAssay (NCI).
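Cultured in 96-well plates, cells were exposed to test compound for 48 hours across five concentrations. The concentration for 50% growth inhibition is given as GI50. The concentration for full growth arrest is given as TGI.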

Tested on: 786-0 renal
Assay: NCI-60 cell line screen, 48 h

Point of comparison: `COc1ccc(/C=C(/c2ccccc2)[N+](=O)[O-])cc1`, GI50 1.58 µM. Against it:
- Nc1ccccc1SC1CC(=O)N(c2ccc(Cl)c(Cl)c2)C1=O (stereo unspecified) — 17-fold higher, 27.3 µM

Point of comparison: `Nc1ccccc1SC1CC(=O)N(c2ccc(Cl)c(Cl)c2)C1=O` (stereo unspecified), TGI 90.3 µM. Against it:
- CCOC(CN(C)C(=S)Nc1cccc2ccccc12)OCC — not separable, > 10 µM
- CCCCN(CCCC)C(=C(C(Cl)=C(Cl)Cl)[N+](=O)[O-])N(CCCC)CCCC — higher, > 100 µM
- COc1cc(CNc2nc3cc(C(F)(F)F)ccc3nc2-c2ccccc2)cc(OC)c1OC — higher, > 100 µM
- COc1ccc(/C=C(/c2ccccc2)[N+](=O)[O-])cc1 — 31-fold lower, 2.96 µM

Tested on: SF-295 CNS
Assay: NCI-60 cell line screen, 48 h

Point of comparison: `COc1ccc(/C=C(/c2ccccc2)[N+](=O)[O-])cc1`, GI50 2.29 µM. Against it:
- Nc1ccccc1SC1CC(=O)N(c2ccc(Cl)c(Cl)c2)C1=O (stereo unspecified) — 4.4-fold higher, 10.1 µM

Point of comparison: `COc1ccc(/C=C(/c2ccccc2)[N+](=O)[O-])cc1`, TGI 5.22 µM. Against it:
- Nc1ccccc1SC1CC(=O)N(c2ccc(Cl)c(Cl)c2)C1=O (stereo unspecified) — higher, > 100 µM
- CCOC(CN(C)C(=S)Nc1cccc2ccccc12)OCC — higher, > 10 µM
- CCCCN(CCCC)C(=C(C(Cl)=C(Cl)Cl)[N+](=O)[O-])N(CCCC)CCCC — higher, > 100 µM
- COc1cc(CNc2nc3cc(C(F)(F)F)ccc3nc2-c2ccccc2)cc(OC)c1OC — higher, > 100 µM

Tested on: K-562 leukemia
Assay: NCI-60 cell line screen, 48 h

Point of comparison: `Nc1ccccc1SC1CC(=O)N(c2ccc(Cl)c(Cl)c2)C1=O` (stereo unspecified), GI50 15 µM. Against it:
- COc1ccc(/C=C(/c2ccccc2)[N+](=O)[O-])cc1 — 38-fold lower, 0.393 µM

Point of comparison: `CCCCN(CCCC)C(=C(C(Cl)=C(Cl)Cl)[N+](=O)[O-])N(CCCC)CCCC`, TGI 4.69 µM. Against it:
- Nc1ccccc1SC1CC(=O)N(c2ccc(Cl)c(Cl)c2)C1=O (stereo unspecified) — higher, > 100 µM
- CCOC(CN(C)C(=S)Nc1cccc2ccccc12)OCC — higher, > 10 µM
- COc1cc(CNc2nc3cc(C(F)(F)F)ccc3nc2-c2ccccc2)cc(OC)c1OC — higher, > 100 µM
- COc1ccc(/C=C(/c2ccccc2)[N+](=O)[O-])cc1 — higher, > 100 µM

Tested on: HCT-15 colon
Assay: NCI-60 cell line screen, 48 h

Point of comparison: `COc1ccc(/C=C(/c2ccccc2)[N+](=O)[O-])cc1`, GI50 0.446 µM. Against it:
- Nc1ccccc1SC1CC(=O)N(c2ccc(Cl)c(Cl)c2)C1=O (stereo unspecified) — 64-fold higher, 28.6 µM

Point of comparison: `COc1ccc(/C=C(/c2ccccc2)[N+](=O)[O-])cc1`, TGI 1.86 µM. Against it:
- Nc1ccccc1SC1CC(=O)N(c2ccc(Cl)c(Cl)c2)C1=O (stereo unspecified) — higher, > 100 µM
- CCOC(CN(C)C(=S)Nc1cccc2ccccc12)OCC — higher, > 10 µM
- CCCCN(CCCC)C(=C(C(Cl)=C(Cl)Cl)[N+](=O)[O-])N(CCCC)CCCC — higher, > 100 µM
- COc1cc(CNc2nc3cc(C(F)(F)F)ccc3nc2-c2ccccc2)cc(OC)c1OC — 30-fold higher, 56 µM

Tested on: SF-268 CNS
Assay: NCI-60 cell line screen, 48 h

Point of comparison: `COc1ccc(/C=C(/c2ccccc2)[N+](=O)[O-])cc1`, GI50 1.82 µM. Against it:
- Nc1ccccc1SC1CC(=O)N(c2ccc(Cl)c(Cl)c2)C1=O (stereo unspecified) — 16-fold higher, 29.7 µM

Point of comparison: `COc1ccc(/C=C(/c2ccccc2)[N+](=O)[O-])cc1`, TGI 3.77 µM. Against it:
- Nc1ccccc1SC1CC(=O)N(c2ccc(Cl)c(Cl)c2)C1=O (stereo unspecified) — higher, > 100 µM
- CCOC(CN(C)C(=S)Nc1cccc2ccccc12)OCC — higher, > 10 µM
- CCCCN(CCCC)C(=C(C(Cl)=C(Cl)Cl)[N+](=O)[O-])N(CCCC)CCCC — higher, > 100 µM
- COc1cc(CNc2nc3cc(C(F)(F)F)ccc3nc2-c2ccccc2)cc(OC)c1OC — higher, > 100 µM

Tested on: MOLT-4 leukemia
Assay: NCI-60 cell line screen, 48 h

Point of comparison: `COc1ccc(/C=C(/c2ccccc2)[N+](=O)[O-])cc1`, GI50 2.18 µM. Against it:
- Nc1ccccc1SC1CC(=O)N(c2ccc(Cl)c(Cl)c2)C1=O (stereo unspecified) — 3.5-fold higher, 7.7 µM

Point of comparison: `COc1ccc(/C=C(/c2ccccc2)[N+](=O)[O-])cc1`, TGI 6.28 µM. Against it:
- Nc1ccccc1SC1CC(=O)N(c2ccc(Cl)c(Cl)c2)C1=O (stereo unspecified) — higher, > 100 µM
- CCOC(CN(C)C(=S)Nc1cccc2ccccc12)OCC — higher, > 10 µM
- COc1cc(CNc2nc3cc(C(F)(F)F)ccc3nc2-c2ccccc2)cc(OC)c1OC — higher, > 100 µM

Tested on: HCT-116 colon
Assay: NCI-60 cell line screen, 48 h

Point of comparison: `Nc1ccccc1SC1CC(=O)N(c2ccc(Cl)c(Cl)c2)C1=O` (stereo unspecified), GI50 24.2 µM. Against it:
- COc1ccc(/C=C(/c2ccccc2)[N+](=O)[O-])cc1 — 23-fold lower, 1.03 µM

Point of comparison: `COc1ccc(/C=C(/c2ccccc2)[N+](=O)[O-])cc1`, TGI 2.29 µM. Against it:
- Nc1ccccc1SC1CC(=O)N(c2ccc(Cl)c(Cl)c2)C1=O (stereo unspecified) — higher, > 100 µM
- CCOC(CN(C)C(=S)Nc1cccc2ccccc12)OCC — higher, > 10 µM
- CCCCN(CCCC)C(=C(C(Cl)=C(Cl)Cl)[N+](=O)[O-])N(CCCC)CCCC — higher, > 100 µM
- COc1cc(CNc2nc3cc(C(F)(F)F)ccc3nc2-c2ccccc2)cc(OC)c1OC — higher, > 100 µM

Tested on: OVCAR-3 ovarian
Assay: NCI-60 cell line screen, 48 h

Point of comparison: `Nc1ccccc1SC1CC(=O)N(c2ccc(Cl)c(Cl)c2)C1=O` (stereo unspecified), GI50 11.6 µM. Against it:
- COc1ccc(/C=C(/c2ccccc2)[N+](=O)[O-])cc1 — 8.5-fold lower, 1.36 µM

Point of comparison: `Nc1ccccc1SC1CC(=O)N(c2ccc(Cl)c(Cl)c2)C1=O` (stereo unspecified), TGI 44 µM. Against it:
- CCOC(CN(C)C(=S)Nc1cccc2ccccc12)OCC — not separable, > 10 µM
- CCCCN(CCCC)C(=C(C(Cl)=C(Cl)Cl)[N+](=O)[O-])N(CCCC)CCCC — higher, > 100 µM
- COc1cc(CNc2nc3cc(C(F)(F)F)ccc3nc2-c2ccccc2)cc(OC)c1OC — higher, > 100 µM
- COc1ccc(/C=C(/c2ccccc2)[N+](=O)[O-])cc1 — 16-fold lower, 2.69 µM

Tested on: NCI-H226 lung
Assay: NCI-60 cell line screen, 48 h

Point of comparison: `Nc1ccccc1SC1CC(=O)N(c2ccc(Cl)c(Cl)c2)C1=O` (stereo unspecified), GI50 14.6 µM. Against it:
- COc1ccc(/C=C(/c2ccccc2)[N+](=O)[O-])cc1 — 7.5-fold lower, 1.95 µM

Point of comparison: `Nc1ccccc1SC1CC(=O)N(c2ccc(Cl)c(Cl)c2)C1=O` (stereo unspecified), TGI 64.4 µM. Against it:
- CCOC(CN(C)C(=S)Nc1cccc2ccccc12)OCC — not separable, > 10 µM
- CCCCN(CCCC)C(=C(C(Cl)=C(Cl)Cl)[N+](=O)[O-])N(CCCC)CCCC — higher, > 100 µM
- COc1cc(CNc2nc3cc(C(F)(F)F)ccc3nc2-c2ccccc2)cc(OC)c1OC — higher, > 100 µM
- COc1ccc(/C=C(/c2ccccc2)[N+](=O)[O-])cc1 — 15-fold lower, 4.43 µM

Tested on: NCI-H522 lung
Assay: NCI-60 cell line screen, 48 h

Point of comparison: `Nc1ccccc1SC1CC(=O)N(c2ccc(Cl)c(Cl)c2)C1=O` (stereo unspecified), GI50 19.4 µM. Against it:
- COc1ccc(/C=C(/c2ccccc2)[N+](=O)[O-])cc1 — 12-fold lower, 1.65 µM

Point of comparison: `COc1ccc(/C=C(/c2ccccc2)[N+](=O)[O-])cc1`, TGI 4.16 µM. Against it:
- Nc1ccccc1SC1CC(=O)N(c2ccc(Cl)c(Cl)c2)C1=O (stereo unspecified) — higher, > 100 µM
- CCOC(CN(C)C(=S)Nc1cccc2ccccc12)OCC — higher, > 10 µM
- CCCCN(CCCC)C(=C(C(Cl)=C(Cl)Cl)[N+](=O)[O-])N(CCCC)CCCC — higher, > 100 µM
- COc1cc(CNc2nc3cc(C(F)(F)F)ccc3nc2-c2ccccc2)cc(OC)c1OC — higher, > 100 µM

Tested on: MALME-3M melanoma
Assay: NCI-60 cell line screen, 48 h

Point of comparison: `Nc1ccccc1SC1CC(=O)N(c2ccc(Cl)c(Cl)c2)C1=O` (stereo unspecified), GI50 15.6 µM. Against it:
- COc1ccc(/C=C(/c2ccccc2)[N+](=O)[O-])cc1 — 11-fold lower, 1.42 µM

Point of comparison: `COc1cc(CNc2nc3cc(C(F)(F)F)ccc3nc2-c2ccccc2)cc(OC)c1OC`, TGI 72 µM. Against it:
- Nc1ccccc1SC1CC(=O)N(c2ccc(Cl)c(Cl)c2)C1=O (stereo unspecified) — higher, > 100 µM
- CCOC(CN(C)C(=S)Nc1cccc2ccccc12)OCC — not separable, > 10 µM
- CCCCN(CCCC)C(=C(C(Cl)=C(Cl)Cl)[N+](=O)[O-])N(CCCC)CCCC — higher, > 100 µM
- COc1ccc(/C=C(/c2ccccc2)[N+](=O)[O-])cc1 — 24-fold lower, 2.94 µM

Tested on: U251 CNS
Assay: NCI-60 cell line screen, 48 h

Point of comparison: `COc1ccc(/C=C(/c2ccccc2)[N+](=O)[O-])cc1`, GI50 1.61 µM. Against it:
- Nc1ccccc1SC1CC(=O)N(c2ccc(Cl)c(Cl)c2)C1=O (stereo unspecified) — 13-fold higher, 21.1 µM

Point of comparison: `COc1ccc(/C=C(/c2ccccc2)[N+](=O)[O-])cc1`, TGI 3.21 µM. Against it:
- Nc1ccccc1SC1CC(=O)N(c2ccc(Cl)c(Cl)c2)C1=O (stereo unspecified) — higher, > 100 µM
- CCOC(CN(C)C(=S)Nc1cccc2ccccc12)OCC — higher, > 10 µM
- CCCCN(CCCC)C(=C(C(Cl)=C(Cl)Cl)[N+](=O)[O-])N(CCCC)CCCC — higher, > 100 µM
- COc1cc(CNc2nc3cc(C(F)(F)F)ccc3nc2-c2ccccc2)cc(OC)c1OC — higher, > 100 µM

Tested on: OVCAR-4 ovarian
Assay: NCI-60 cell line screen, 48 h

Point of comparison: `COc1ccc(/C=C(/c2ccccc2)[N+](=O)[O-])cc1`, GI50 1.69 µM. Against it:
- Nc1ccccc1SC1CC(=O)N(c2ccc(Cl)c(Cl)c2)C1=O (stereo unspecified) — 11-fold higher, 19.2 µM

Point of comparison: `COc1ccc(/C=C(/c2ccccc2)[N+](=O)[O-])cc1`, TGI 3.15 µM. Against it:
- Nc1ccccc1SC1CC(=O)N(c2ccc(Cl)c(Cl)c2)C1=O (stereo unspecified) — higher, > 100 µM
- CCOC(CN(C)C(=S)Nc1cccc2ccccc12)OCC — higher, > 10 µM
- CCCCN(CCCC)C(=C(C(Cl)=C(Cl)Cl)[N+](=O)[O-])N(CCCC)CCCC — higher, > 100 µM

Tested on: A549 NSCLC
Assay: NCI-60 cell line screen, 48 h

Point of comparison: `Nc1ccccc1SC1CC(=O)N(c2ccc(Cl)c(Cl)c2)C1=O` (stereo unspecified), GI50 19.5 µM. Against it:
- COc1ccc(/C=C(/c2ccccc2)[N+](=O)[O-])cc1 — 9.2-fold lower, 2.13 µM

Point of comparison: `COc1ccc(/C=C(/c2ccccc2)[N+](=O)[O-])cc1`, TGI 5.12 µM. Against it:
- Nc1ccccc1SC1CC(=O)N(c2ccc(Cl)c(Cl)c2)C1=O (stereo unspecified) — higher, > 100 µM
- CCOC(CN(C)C(=S)Nc1cccc2ccccc12)OCC — higher, > 10 µM
- CCCCN(CCCC)C(=C(C(Cl)=C(Cl)Cl)[N+](=O)[O-])N(CCCC)CCCC — higher, > 100 µM
- COc1cc(CNc2nc3cc(C(F)(F)F)ccc3nc2-c2ccccc2)cc(OC)c1OC — higher, > 100 µM
